{
  "source": "patent US9586993B2",
  "about": "“CD44v6-derived peptides for treating pancreatic cancer” (AMCURE GMBH, priority 2012, dated 2017)",
  "key": {"[1]": {"tested_on": "Met", "conditions": "Matzke et al., Cancer Res. (2005), cited from earlier work"}, "[2]": {"tested_on": "BSp73ASs6 tumors", "conditions": "rat, iv", "procedure": "In vivo imaging of the subcutaneously grown BSp73ASs6 tumors in BD10 or BDX rats was performed using the near infrared fluorescence (NIRF)-imaging system Optix MX2 (ART, Montreal, Canada) as described earlier (Napp et al., Int J Cancer (2010), 127:1958-1974). To avoid autofluorescence of fur, rats were shaved around the tumor prior to imaging. Subsequently, animals were anesthetized using 2% isoflurane and gently fixed on the devices' heated plate for the entire time of data acquisition. To reduce fluorescence background, rats were fed with chlorophyll-reduced food (Provimi Kliba AG, Kaiseraugst, Switzerland) for one week prior NIRF imaging. All in vivo analyses were preceded by native scans of animals without any injection of the fluorescent probe. For in vivo analysis, rats were injected with 200 DY681-labeled rat v6 11mer peptide or the human v6 11mer peptide via the tail vein. […]\nDY681 fluorescence was measured using excitation at 670 nm in combination with a 700 nm long-pass emission filter. […] Data sets were analyzed with OptiView (ART).\nFor in vivo experiments, BSp73ASs6 cells were injected subcutaneously into syngeneic rats. […] The accumulation of the fluorescence was measured in the tumor region by Optix MX2 at the indicated time points. […] Then, in vivo binding kinetics of the Dy681-labeled v6 peptides to the subcutaneous tumors were determined."}, "[3]": {"tested_on": "BSp73ASs6 cells", "assay": "Staining of fixed BSp73ASs6 cells with DY681-labeled peptides", "format": "binding, rat", "conditions": "DY681-labeled peptide, one hour", "protocol": "(§1) ASs6 or L3.6p1 cells were seeded at 5,000 cells/well of a Lab-Tek® Chamber Slide™ (Nunc, Napierville, Ill., USA). On the following day the cells were washed with cold PBS and fixed with 4% Formalin for 30 min at RT. Unspecific binding was blocked with 1% BSA in PBS for 1 hour at RT. The cells were incubated for 1 hour with the DY681-labeled peptides. After three washing steps with PBS the cover slips were mounted with Fluorescence Mounting Medium (Dako, Glostrup, Denmark) and the immunofluorescence was measured by a laser scanning confocal microscope Leica TCS2 SP2 (Exton, Pa., USA) and processed using Leica confocal software. A 20× objective was used for imaging."}, "[4]": {"tested_on": "HGF induced activation of the receptor tyrosine kinase Met and ERK", "assay": "HGF-induced activation of Met and ERK in BSp73ASs6 cells (western blot)", "format": "cell-based, rat", "conditions": "HGF 10 ng/ml, peptide added 10 min before induction", "protocol": "(§2) Serum-starved cells (24 hours) were induced with the growth factor HGF (10 ng/mL) at 37° C. for 5 minutes. Where indicated, the cells were treated with peptides (100 ng/ml) prior to induction at 37° C. for 10 minutes (100 ng/mL CD44v6 peptide or control peptide). Following the induction with HGF, cells were washed with ice-cold phosphate-buffered saline (PBS). To detect activated Met and Erk, cells were lysed in sodium dodecyl sulfate (SDS)-sample buffer containing 100 mM dithiothreitol (DTT), boiled and subjected to western blot analysis using antibodies against phospho-Met and ERK. The loading controls were performed on the same blot after stripping (62.5 mM Tris, pH 6.8, 2% SDS, 0.8% DTT) by probing with the Met respectively ERK antibody. Blots were stained using the enhanced chemiluminescence system (Thermo Fisher Scientific, Schwerte, Germany). Bands in western blot analysis were quantified with the program Image J (National Institutes of Health).\nThe PEG-control peptide and PEG-rat CD44v6 peptide were compared for their ability to block HGF induced activation of the receptor tyrosine kinase Met and ERK. […]\nActivation of ERK and Met was determined by standard SDS and Western Blotting techniques using a phospho-Met and phospho-Erk specific antibody (phospho-Met clone D16 cell signaling, phospho-Erk p42/44 cell signaling)"}, "[5]": {"tested_on": "L3.6p1 cells", "assay": "Staining of L3.6p1 cells with DY681-labeled peptides", "format": "binding, human", "conditions": "DY681-labeled peptide", "protocol": "as §1"}, "[6]": {"tested_on": "Met activation and downstream signaling to ERK", "assay": "HGF-induced activation of Met and ERK in L3.6p1 cells (western blot)", "format": "cell-based, human", "conditions": "HGF 10 ng/ml", "protocol": "as §2\nTo expand the studies to human pancreatic tumors, the highly metastatic human pancreatic carcinoma cells L3.6p1 (Bruns, et al. Neoplasia (1999), 1(1):50-62) were investigated. These cells originate from the […] cells that have been passaged several times in the liver and the pancreas, a step that rendered them more and more metastatic. It was confirmed that Met is dependent on CD44v6 for its activation and signaling in these cells (FIG. 4A). The L3.6p1 cells were treated with HGF in the presence or absence of a human v6 peptide of SEQ ID NO: 2 or SEQ ID NO:6 and Met activation and downstream signaling to ERK was measured."}, "[7]": {"tested_on": "L3.6p1 tumors", "assay": "In vivo and ex vivo imaging with Pearl Imager of mice bearing L3.6p1 tumors", "set-up": "species or system mouse", "protocol": "In vivo imaging of the mice with the L3.6p1 tumors was performed using the Pearl™ Imager (LI-COR Biosciences, Bad Homburg, Germany) The system uses two lasers (685 and 785 nm) for excitation and a charge-coupled device detector for signal detection. The laser excitation enables a deep tissue penetration. With the near-infrared detection a high sensitivity due to the reduced tissue auto-fluorescence is achieved. In order to standardize the images we made use of the Pearl Cam Software. The animals were fed with chlorophyll-reduced food to reduce the fluorescence background one week before imaging (Regime 210, safe-diets, Augy, France). Prior to imaging the mice were anesthetized with 2.0% isoflurane. Animals were placed on the heated plate of the imager and continuous delivery of isoflurane was achieved through a nose cone in the imaging drawer. Images were captured at white light, 700 and 800 nm Animals were imaged prior to i.v. peptide injection and 24 h after injection with either DY681-labeled human v6 peptide or DY681-labeled rat v6 peptide as control Immediately after each imaging session animals were killed, tumor, liver and spleen isolated and scanned ex vivo at white light, 700 and 800 nm."}, "[8]": {"tested_on": "L3.6p1 pancreatic carcinoma cells", "assay": "Human orthotopic model, L3.6p1 cells in the pancreas of nude mice", "format": "in vivo, mouse", "conditions": "dose reduction experiment, 0.2 to 20 μg per injection three times per week for 3 weeks"}, "[9]": {"tested_on": "L3.6p1 pancreatic carcinoma cells", "assay": "Human orthotopic model, L3.6p1 cells in the pancreas of nude mice", "format": "in vivo, mouse", "protocol": "In the case of the human orthotopic model, L3.6p1 pancreatic carcinoma cells (passage 24-26) were suspended in Hank's balanced salt solution (Invitrogen, Karlsruhe, Germany) after trypsinization. The cells were injected orthotopically in the pancreas of male nude mice as described (Bruns C J et al. (1999) Neoplasia 1(1):50-62). Two groups of 15 mice each were injected i.p. 7 days later with either the human v6 peptide respectively rat control peptide (20 μg). For all experiments described and depicted herein either the rat 14mer control peptide or the human 14mer peptide were used. All experiments were then repeated with the rat 5mer control peptide or the human 5mer peptide (N-R-W-H-E, SEQ ID NO: 2). […] The injection was repeated three times per week for 21 days. Two days after the last treatment the animals were killed.\n7 μm thick paraffin sections were deparaffinized and rehydrated. For P-Met staining antigen unmasking was achieved by boiling the slides in 1 mM EDTA pH 8.0 followed by incubation for 15 minutes at a sub-boiling temperature, for CD31 staining the sections were treated with Proteinase K (8 μg/ml) for 10 min at 37° C. For immunofluorescence staining of P-Met, unspecific binding was blocked with 5% goat serum (DAKO, Glostrup, Denmark) (diluted in 1×PBS/0.3% Triton X-100) for 60 minutes. In the case of immunohistochemistry, endogenous peroxidases were at first blocked with 3% H2O2 in PBS followed by incubation with biotin blocking system (Dako, Glostrup, Denmark) and then unspecific binding was inhibited by incubation with 5% FCS in PBS. The sections were incubated with the P-Met antibody (D26, dilution 1:50 in 1×PBS/1% BSA/0.3% Triton X-100), Met antibody (C-28, dilution 1:50), GFP antibody (sc-101525, dilution 1:50) or antibody (5 μg/ml) over night or VFF18 (5 μg/ml) o/n at 4° C. After washing in PBS the sections were incubated with Alexa Fluor R 546 goat anti-rabbit (in case of immunofluorescence P-Met and Met staining, dilution 1:500) or a biotinylated secondary antibody (for immunohistochemical stainings rabbit anti-rat antibody for VFF18 and CD31, goat anti-rabbit for P-Met, cleaved Caspase-3 and cleaved Caspase-8 and rabbit anti-mouse for GFP, dilution 1:500) for 45 minutes. For DAB (3,3′-diaminobenzidine) staining the sections were treated with a streptavidin-peroxidase conjugate (Dako, Glostrup, Denmark) and developed with DAB substrate system (3,3′-diaminobenzidine; Biozol, Eching, Germany) For immunofluorescence DAPI was used for nuclear staining.\nThe three CD44v6 specific compounds (v6 5mer, PEG840-v6 5mer and PEG2000-v6 5mer of human origin) and a control peptide were applied in three concentrations (2 μg, 20 μg, 200 μg per injection) three times per week i.p. for 4 weeks. One week before start of the treatment the L3.6p1 tumor cells were orthotopically implanted into nude mice.\nAnimals were implanted orthotopically with L3.6p1 cells. Tumor growth was allowed for one week before the treatment with the linear v6 14mer, the cyclic v6 8mer as well as the control peptide (rat v6 14mer) was started. All peptides were injected three times per week at a concentration of 0.2, 2 and 10 μg per injection for 3 weeks. At the end of the treatment animals were sacrificed.\nA comparison of different CD44v6 peptide derivatives was performed in animals bearing a orthotopic L3.6p1 tumor. 10 groups of 5 animals each received a dose of 20 μg peptide per injection three times per week for 3 weeks with the compounds listed in Table 4. Three weeks after starting the treatment the animals were sacrificed and analyzed for macroscopic metastases and tumor volume."}},
  "note": "Where two headings read alike, the source gives them in different places. No end group written: not given here.",
  "data": [
    {"substance": "A-R-W-H-A (ARWHA) [A-R-W-H-A (SEQ ID NO: 3)]", "values": [
      {"measurement": "inhibition of CD44v6 mediated activation of Met", "setting": "[1]", "result": "capable of abrogating Met activation"},
      {"measurement": "inhibition of CD44v6 mediated activation of Met", "setting": "[1]; listed as SEQ ID NO: 3", "result": "still active in inhibiting CD44v6 mediated activation of Met"}
    ]},
    {"substance": "WFENEWQGKNP (also: DY681 dye, position not given here) [DY681 rat v6 peptide, rat 11mer labeled with the fluorescent dye DY681]", "values": [
      {"measurement": "time of maximum fluorescence intensity over the tumor area", "setting": "[2]; in vivo", "result": 1, "unit": "days"},
      {"measurement": "duration of high fluorescence intensity over the tumor area in vivo", "setting": "[2]", "result": "at least 2 days"},
      {"measurement": "binding to BSp73ASs6 cells in tissue culture", "setting": "[3]", "result": "bound to BSp73ASs6 cells in tissue culture"},
      {"measurement": "inhibition of HGF-induced activation of Met and Erk", "setting": "[4]", "result": "inhibited Met activation"}
    ]},
    {"substance": "WFGNRWHEGYR (also: DY681 dye, position not given here) [DY681 human v6 peptide, human 11mer labeled with the fluorescent dye DY681]", "values": [
      {"measurement": "binding to L3.6p1 cells in cell culture", "setting": "[5]", "result": "bound to these cells in cell culture"},
      {"measurement": "inhibition of HGF-induced activation (phosphorylation) of Met and ERK", "setting": "[6]", "result": "inhibited Met activation in L3.6p1 cells"},
      {"measurement": "fluorescence in the tumor in vivo", "setting": "[7]; one i.v. injection of 20 μg, 24 h after injection", "result": "accumulated specifically in the tumor"},
      {"measurement": "ex vivo fluorescence in primary tumors, livers and spleens", "setting": "[7]; organs excised 24 h after injection", "result": "binding not only to primary tumors but also to areas of the liver"}
    ]},
    {"substance": "WFQNGWQGKNP (also: DY681 dye, position not given here) [DY681 mouse v6 peptide, mouse 11mer labeled with the fluorescent dye DY681, control, reference compound]", "values": [
      {"measurement": "inhibition of HGF-induced activation of Met and Erk", "setting": "[4]", "result": "but not the mouse peptide inhibited Met activation"}
    ]},
    {"substance": "cy[KGNRWHEG] (also: cyclic, ring type not given here) [cycl. 8 mer]", "values": [
      {"measurement": "size / growth of the primary tumor", "setting": "[8]; listed as cyclic 8mer", "result": "reduces growth of the primary tumor"},
      {"measurement": "size / growth of the primary tumor", "setting": "[8]; listed as cyclic v6 8mer", "result": "drastic effect on growth of the primary tumor"},
      {"measurement": "metastasis formation (liver)", "setting": "[9]; 2 μg per injection i.p. three times per week", "result": "blocked metastatic spreading at 2 and 20 μg per injection very efficiently"},
      {"measurement": "outgrowth / size of the primary tumor", "setting": "[9]; 20 μg per injection i.p. three times per week for three weeks, start one week after implantation", "result": "strongest reduction of tumor size"},
      {"measurement": "metastasis formation (liver)", "setting": "[9]; 20 μg per injection i.p. three times per week, start one week after implantation, listed as cyclic 8mer", "result": "complete inhibition of metastasis"},
      {"measurement": "metastasis formation (liver)", "setting": "[9]; 20 μg per injection i.p. three times per week, start one week after implantation, listed as cyclic v6 8mer", "result": "blocked metastatic spreading at 2 and 20 μg per injection very efficiently"}
    ]}
  ]
}
